Data: US20220340629A1, “Myosin Derived Peptides and Related Compounds with Anticoagulant Activities” (THE SCRIPPS RESEARCH INSTITUTE, priority 0001, published 2022)
Like-named read-outs stand apart in the source and are kept apart here. Non-standard residues stand in square brackets, D forms with d. Residues, ends and D or L forms follow the SMILES beside them. NMeA = CN[C@@H](C)C(=O)O; Nle = CCCC[C@H](N)C(=O)O

Biological target: skeletal muscle myosin-supported prothrombin activation by factors Xa and Va (Homo sapiens, UniProt P00742)
Experiment: Assay 1A: prothrombin activation by factor Xa/factor Va/myosin in purified system
Format: biochemical, human factors Xa and Va; rabbit skeletal muscle myosin
Details: purified system
[1] = skeletal muscle myosin, factor Va 5 nM, factor Xa 0.2 nM, prothrombin 0.75 μM, 10 min, read-out: 1A (+myosin)
[2] = prothrombin activation with myosin, read-out: 1A (+ myosin) IC50

Chain of skeletal muscle myosin-supported prothrombin activation by factors Xa and Va (P00742 41-179): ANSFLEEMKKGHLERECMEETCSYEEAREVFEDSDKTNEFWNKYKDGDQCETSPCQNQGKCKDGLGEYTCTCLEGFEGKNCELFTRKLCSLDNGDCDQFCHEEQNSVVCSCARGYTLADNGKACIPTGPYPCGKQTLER
Chain of skeletal muscle myosin-supported prothrombin activation by factors Xa and Va (P00742 235-488): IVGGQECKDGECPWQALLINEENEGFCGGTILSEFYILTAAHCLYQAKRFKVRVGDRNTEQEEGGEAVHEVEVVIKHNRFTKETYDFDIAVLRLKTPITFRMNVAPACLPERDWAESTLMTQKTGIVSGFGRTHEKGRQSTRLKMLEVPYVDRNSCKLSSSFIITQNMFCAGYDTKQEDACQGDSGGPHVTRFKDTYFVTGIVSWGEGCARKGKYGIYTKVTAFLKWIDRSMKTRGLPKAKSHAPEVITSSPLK
Chain of skeletal muscle myosin-supported prothrombin activation by factors Xa and Va (P12259 29-737 partner): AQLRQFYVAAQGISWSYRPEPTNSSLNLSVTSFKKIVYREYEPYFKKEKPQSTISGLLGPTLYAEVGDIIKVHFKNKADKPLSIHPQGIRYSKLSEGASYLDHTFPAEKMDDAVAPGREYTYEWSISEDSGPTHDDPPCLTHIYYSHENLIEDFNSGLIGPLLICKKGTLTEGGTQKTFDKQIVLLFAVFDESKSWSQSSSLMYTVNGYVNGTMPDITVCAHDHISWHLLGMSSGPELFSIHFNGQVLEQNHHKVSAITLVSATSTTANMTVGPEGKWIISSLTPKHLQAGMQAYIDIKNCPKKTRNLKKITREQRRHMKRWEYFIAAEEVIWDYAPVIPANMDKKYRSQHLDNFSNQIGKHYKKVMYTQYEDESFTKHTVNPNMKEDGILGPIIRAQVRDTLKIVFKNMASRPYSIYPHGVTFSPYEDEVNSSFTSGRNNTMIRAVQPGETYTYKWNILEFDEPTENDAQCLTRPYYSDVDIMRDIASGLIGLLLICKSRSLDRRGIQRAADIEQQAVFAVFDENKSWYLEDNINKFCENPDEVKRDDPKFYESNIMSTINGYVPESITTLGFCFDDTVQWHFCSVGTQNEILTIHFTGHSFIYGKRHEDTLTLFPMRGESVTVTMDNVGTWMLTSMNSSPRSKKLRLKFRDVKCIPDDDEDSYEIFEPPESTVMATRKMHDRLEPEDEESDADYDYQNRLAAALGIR
Chain of skeletal muscle myosin-supported prothrombin activation by factors Xa and Va (P12259 1574-2224 partner): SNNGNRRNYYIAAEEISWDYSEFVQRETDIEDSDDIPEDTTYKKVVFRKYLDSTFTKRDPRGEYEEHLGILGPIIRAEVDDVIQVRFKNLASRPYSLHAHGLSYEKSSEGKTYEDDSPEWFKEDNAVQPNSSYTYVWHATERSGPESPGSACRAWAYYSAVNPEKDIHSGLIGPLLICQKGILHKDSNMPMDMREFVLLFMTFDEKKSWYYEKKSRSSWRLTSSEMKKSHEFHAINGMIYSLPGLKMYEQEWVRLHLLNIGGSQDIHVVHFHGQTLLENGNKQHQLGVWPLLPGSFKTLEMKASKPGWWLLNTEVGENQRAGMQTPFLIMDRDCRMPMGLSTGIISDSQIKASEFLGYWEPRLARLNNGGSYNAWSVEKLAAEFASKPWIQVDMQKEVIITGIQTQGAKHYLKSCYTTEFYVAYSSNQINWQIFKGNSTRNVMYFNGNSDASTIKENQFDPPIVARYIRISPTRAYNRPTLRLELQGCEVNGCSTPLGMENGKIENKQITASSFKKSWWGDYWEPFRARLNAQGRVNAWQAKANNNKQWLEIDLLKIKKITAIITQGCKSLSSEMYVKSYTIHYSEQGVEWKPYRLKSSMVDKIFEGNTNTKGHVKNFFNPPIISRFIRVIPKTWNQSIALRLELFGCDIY

Compound | IC50 [1] [nM] | IC50 [2] [nM]
CC[C@H](C)[C@H](NC(=O)[C@H](C)N)C(=O)N[C@@H](Cc1ccccc1)C(=O)N[C@@H](CS)C(=O)N[C@H](C(=O)N[C@@H](CCC(N)=O)C(=O)N[C@@H](Cc1ccc(O)cc1)C(=O)N[C@@H](CC(N)=O)C(=O)N[C@H](C(=O)N[C@@H](CCCNC(=N)N)C(=O)N[C@@H](CO)C(=O)N[C@@H](Cc1ccccc1)C(=O)N[C@@H](CCSC)C(=O)N[C@@H](CC(N)=O)C(=O)N[C@H](C(=O)N[C@@H](CCCCN)C(=O)N[C@@H](Cc1c[nH]cn1)C(=O)N[C@@H](C)C(=O)N1CCC[C@H]1C(=O)N[C@@H](Cc1c[nH]c2ccccc12)C(=O)N[C@@H](CCSC)C(=O)N[C@@H](CCCCN)C(N)=O)C(C)C)[C@@H](C)CC)[C@@H](C)CC [HC133] (H-AIFCIQYNIRSFMNVKHAPWMK-NH2; N-terminus assumed) | 1800 | 
CCCC[C@H](NC(=O)[C@H](Cc1c[nH]c2ccccc12)NC(=O)[C@@H]1CCCN1C(=O)[C@H](Cc1c[nH]c2ccccc12)NC(=O)[C@H](Cc1c[nH]cn1)NC(=O)[C@H](CCCCN)NC(=O)[C@@H](NC(=O)[C@H](CC(N)=O)NC(=O)[C@H](CCCC)NC(=O)[C@H](Cc1ccccc1)NC(=O)[C@H](CO)NC(=O)[C@H](CCCNC(=N)N)NC(=O)[C@@H](NC(=O)[C@H](CC(N)=O)NC(=O)[C@H](Cc1ccc(O)cc1)NC(=O)[C@H](CCC(N)=O)NC(=O)[C@@H](NC(=O)[C@H](CS)NC(=O)[C@H](Cc1ccccc1)NC(=O)[C@H](C)N(C)C(=O)[C@H](C)N)[C@@H](C)CC)[C@@H](C)CC)C(C)C)C(=O)N[C@@H](CCCCN)C(N)=O [HC191] (H-A[NMeA]FCIQYNIRSF[Nle]NVKHWPW[Nle]K-NH2; N-terminus assumed) |  | 1600
CC[C@H](C)[C@H](NC(=O)[C@H](C)N)C(=O)N[C@@H](Cc1ccccc1)C(=O)N[C@@H](CS)C(=O)N[C@H](C(=O)N[C@@H](CCC(N)=O)C(=O)N[C@@H](Cc1ccc(O)cc1)C(=O)N[C@@H](C)C(=O)N[C@H](C(=O)N[C@@H](CCCNC(=N)N)C(=O)N[C@@H](CO)C(=O)N[C@@H](Cc1ccccc1)C(=O)N[C@@H](CCSC)C(=O)N[C@@H](CC(N)=O)C(=O)N[C@H](C(=O)N[C@@H](CCCCN)C(=O)N[C@@H](Cc1c[nH]cn1)C(=O)N[C@@H](Cc1c[nH]c2ccccc12)C(=O)N1CCC[C@H]1C(=O)N[C@@H](Cc1c[nH]c2ccccc12)C(=O)N[C@@H](CCSC)C(=O)N[C@@H](CCCCN)C(N)=O)C(C)C)[C@@H](C)CC)[C@@H](C)CC [HC123] (H-AIFCIQYAIRSFMNVKHWPWMK-NH2; N-terminus assumed) | 600 | 
CC[C@H](C)[C@H](NC(=O)[C@H](C)N)C(=O)N[C@@H](Cc1ccccc1)C(=O)N[C@@H](CS)C(=O)N[C@H](C(=O)N[C@@H](CCC(N)=O)C(=O)N[C@@H](Cc1ccc(O)cc1)C(=O)N[C@@H](CC(N)=O)C(=O)N[C@H](C(=O)N[C@@H](CCCNC(=N)N)C(=O)N[C@@H](CO)C(=O)N[C@@H](Cc1ccccc1)C(=O)N[C@@H](CCSC)C(=O)N[C@@H](CC(N)=O)C(=O)N[C@H](C(=O)N[C@@H](CCCCN)C(=O)N[C@@H](C)C(=O)N[C@@H](Cc1c[nH]c2ccccc12)C(=O)N1CCC[C@H]1C(=O)N[C@@H](Cc1c[nH]c2ccccc12)C(=O)N[C@@H](CCSC)C(=O)N[C@@H](CCCCN)C(N)=O)C(C)C)[C@@H](C)CC)[C@@H](C)CC [HC132] (H-AIFCIQYNIRSFMNVKAWPWMK-NH2; N-terminus assumed) | 3100 | 
CC[C@H](C)[C@H](NC(=O)[C@H](C)N)C(=O)N[C@@H](Cc1ccccc1)C(=O)N[C@@H](CS)C(=O)N[C@H](C(=O)N[C@@H](CCC(N)=O)C(=O)N[C@@H](Cc1ccc(O)cc1)C(=O)N[C@@H](CC(N)=O)C(=O)N[C@H](C(=O)N[C@@H](CCCNC(=N)N)C(=O)N[C@@H](CO)C(=O)N[C@@H](Cc1ccccc1)C(=O)N[C@@H](CCSC)C(=O)N[C@@H](CC(N)=O)C(=O)N[C@H](C(=O)N[C@@H](CCCCN)C(=O)N[C@@H](Cc1c[nH]cn1)C(=O)N[C@@H](Cc1c[nH]c2ccccc12)C(=O)N1CCC[C@H]1C(=O)N[C@@H](Cc1c[nH]c2ccccc12)C(=O)N[C@@H](C)C(=O)N[C@@H](CCCCN)C(N)=O)C(C)C)[C@@H](C)CC)[C@@H](C)CC [HC136] (H-AIFCIQYNIRSFMNVKHWPWAK-NH2; N-terminus assumed) | 1600 | 
CC[C@H](C)[C@H](NC(=O)[C@H](C)N)C(=O)N[C@@H](Cc1ccccc1)C(=O)N[C@@H](CS)C(=O)N[C@H](C(=O)N[C@@H](CCC(N)=O)C(=O)N[C@@H](Cc1ccc(O)cc1)C(=O)N[C@@H](CC(N)=O)C(=O)N[C@@H](C)C(=O)N[C@@H](CCCNC(=N)N)C(=O)N[C@@H](CO)C(=O)N[C@@H](Cc1ccccc1)C(=O)N[C@@H](CCSC)C(=O)N[C@@H](CC(N)=O)C(=O)N[C@H](C(=O)N[C@@H](CCCCN)C(=O)N[C@@H](Cc1c[nH]cn1)C(=O)N[C@@H](Cc1c[nH]c2ccccc12)C(=O)N1CCC[C@H]1C(=O)N[C@@H](Cc1c[nH]c2ccccc12)C(=O)N[C@@H](CCSC)C(=O)N[C@@H](CCCCN)C(N)=O)C(C)C)[C@@H](C)CC [HC124] (H-AIFCIQYNARSFMNVKHWPWMK-NH2; N-terminus assumed) | 700 | 

Continued, values first:

IC50 [1] [nM] | IC50 [2] [nM] | Compound
5500 |  | CC[C@H](C)[C@H](NC(=O)[C@H](C)N)C(=O)N[C@@H](Cc1ccccc1)C(=O)N[C@@H](CS)C(=O)N[C@H](C(=O)N[C@@H](CCC(N)=O)C(=O)N[C@@H](Cc1ccc(O)cc1)C(=O)N[C@@H](CC(N)=O)C(=O)N[C@H](C(=O)N[C@@H](CCCNC(=N)N)C(=O)N[C@@H](CO)C(=O)N[C@@H](Cc1ccccc1)C(=O)N[C@@H](CCSC)C(=O)N[C@@H](CC(N)=O)C(=O)N[C@H](C(=O)N[C@@H](CCCCN)C(=O)N[C@@H](Cc1c[nH]cn1)C(=O)N[C@@H](Cc1c[nH]c2ccccc12)C(=O)N1CCC[C@H]1C(=O)N[C@@H](Cc1c[nH]c2ccccc12)C(=O)N[C@@H](CCSC)C(=O)N[C@@H](C)C(N)=O)C(C)C)[C@@H](C)CC)[C@@H](C)CC [HC137] (H-AIFCIQYNIRSFMNVKHWPWMA-NH2; N-terminus assumed)
780 |  | CC[C@H](C)[C@H](NC(=O)[C@H](CS)NC(=O)[C@H](Cc1ccccc1)NC(=O)[C@H](C)NC(=O)[C@H](C)N)C(=O)N[C@@H](CCC(N)=O)C(=O)N[C@@H](Cc1ccc(O)cc1)C(=O)N[C@@H](CC(N)=O)C(=O)N[C@H](C(=O)N[C@@H](CCCNC(=N)N)C(=O)N[C@@H](CO)C(=O)N[C@@H](Cc1ccccc1)C(=O)N[C@@H](CCSC)C(=O)N[C@@H](CC(N)=O)C(=O)N[C@H](C(=O)N[C@@H](CCCCN)C(=O)N[C@@H](Cc1c[nH]cn1)C(=O)N[C@@H](Cc1c[nH]c2ccccc12)C(=O)N1CCC[C@H]1C(=O)N[C@@H](Cc1c[nH]c2ccccc12)C(=O)N[C@@H](CCSC)C(=O)N[C@@H](CCCCN)C(N)=O)C(C)C)[C@@H](C)CC [HC117] (H-AAFCIQYNIRSFMNVKHWPWMK-NH2; N-terminus assumed)
2200 |  | CC[C@H](C)[C@H](NC(=O)[C@H](C)N)C(=O)N[C@@H](Cc1ccccc1)C(=O)N[C@@H](CS)C(=O)N[C@H](C(=O)N[C@@H](CCC(N)=O)C(=O)N[C@@H](Cc1ccc(O)cc1)C(=O)N[C@@H](CC(N)=O)C(=O)N[C@H](C(=O)N[C@@H](CCCNC(=N)N)C(=O)N[C@@H](CO)C(=O)N[C@@H](Cc1ccccc1)C(=O)N[C@@H](CCSC)C(=O)N[C@@H](CC(N)=O)C(=O)N[C@H](C(=O)N[C@@H](C)C(=O)N[C@@H](Cc1c[nH]cn1)C(=O)N[C@@H](Cc1c[nH]c2ccccc12)C(=O)N1CCC[C@H]1C(=O)N[C@@H](Cc1c[nH]c2ccccc12)C(=O)N[C@@H](CCSC)C(=O)N[C@@H](CCCCN)C(N)=O)C(C)C)[C@@H](C)CC)[C@@H](C)CC [HC131] (H-AIFCIQYNIRSFMNVAHWPWMK-NH2; N-terminus assumed)
2100 |  | CC[C@H](C)[C@H](NC(=O)[C@H](C)N)C(=O)N[C@@H](Cc1ccccc1)C(=O)N[C@@H](CS)C(=O)N[C@H](C(=O)N[C@@H](CCC(N)=O)C(=O)N[C@@H](Cc1ccc(O)cc1)C(=O)N[C@@H](CC(N)=O)C(=O)N[C@H](C(=O)N[C@@H](CCCNC(=N)N)C(=O)N[C@@H](CO)C(=O)N[C@@H](Cc1ccccc1)C(=O)N[C@@H](CCSC)C(=O)N[C@@H](CC(N)=O)C(=O)N[C@@H](C)C(=O)N[C@@H](CCCCN)C(=O)N[C@@H](Cc1c[nH]cn1)C(=O)N[C@@H](Cc1c[nH]c2ccccc12)C(=O)N1CCC[C@H]1C(=O)N[C@@H](Cc1c[nH]c2ccccc12)C(=O)N[C@@H](CCSC)C(=O)N[C@@H](CCCCN)C(N)=O)[C@@H](C)CC)[C@@H](C)CC [HC130] (H-AIFCIQYNIRSFMNAKHWPWMK-NH2; N-terminus assumed)
 | 25000 | QEEIKNMWAAFPPDVGGNVDYKNICYVITH (Ac-QEEIKNMWAAFPPDVGGNVDYKNICYVITH-NH2) [RLC133-162]
900 |  | CC[C@H](C)[C@H](NC(=O)[C@H](C)N)C(=O)N[C@@H](Cc1ccccc1)C(=O)N[C@@H](CS)C(=O)N[C@H](C(=O)N[C@@H](CCC(N)=O)C(=O)N[C@@H](Cc1ccc(O)cc1)C(=O)N[C@@H](CC(N)=O)C(=O)N[C@H](C(=O)N[C@@H](CCCNC(=N)N)C(=O)N[C@@H](CO)C(=O)N[C@@H](Cc1ccccc1)C(=O)N[C@@H](CCSC)C(=O)N[C@@H](CC(N)=O)C(=O)N[C@H](C(=O)N[C@@H](CCCCN)C(=O)N[C@@H](Cc1c[nH]cn1)C(=O)N[C@@H](Cc1c[nH]c2ccccc12)C(=O)N[C@@H](C)C(=O)N[C@@H](Cc1c[nH]c2ccccc12)C(=O)N[C@@H](CCSC)C(=O)N[C@@H](CCCCN)C(N)=O)C(C)C)[C@@H](C)CC)[C@@H](C)CC [HC134] (H-AIFCIQYNIRSFMNVKHWAWMK-NH2; N-terminus assumed)
4200 |  | CC[C@H](C)[C@H](NC(=O)[C@H](C)N)C(=O)N[C@@H](Cc1ccccc1)C(=O)N[C@@H](CS)C(=O)N[C@H](C(=O)N[C@@H](CCC(N)=O)C(=O)N[C@@H](Cc1ccc(O)cc1)C(=O)N[C@@H](CC(N)=O)C(=O)N[C@H](C(=O)N[C@@H](CCCNC(=N)N)C(=O)N[C@@H](CO)C(=O)N[C@@H](Cc1ccccc1)C(=O)N[C@@H](CCSC)C(=O)N[C@@H](C)C(=O)N[C@H](C(=O)N[C@@H](CCCCN)C(=O)N[C@@H](Cc1c[nH]cn1)C(=O)N[C@@H](Cc1c[nH]c2ccccc12)C(=O)N1CCC[C@H]1C(=O)N[C@@H](Cc1c[nH]c2ccccc12)C(=O)N[C@@H](CCSC)C(=O)N[C@@H](CCCCN)C(N)=O)C(C)C)[C@@H](C)CC)[C@@H](C)CC [HC129] (H-AIFCIQYNIRSFMAVKHWPWMK-NH2; N-terminus assumed)
